Data on 1 compound can be found in US7161064B2, “Method for producing stably transformed duckweed using microprojectile bombardment” (North Carolina State University, priority 1997, dated 2007).

Common to all, as to type: cell-based
In series [1] the test system is L. minor strains 8744 and 8627. Briefly: Callus induction from Lemna minor fronds, auxin and cytokinin type and concentration. The conditions noted are these: MS medium, 6 weeks. The protocol: In the auxin type and concentration experiment, four auxins: 2,4-D, NAA, IBA and dicamba were tested, each at four concentrations: 2, 5, 10 and 20 μM, for their ability to induce callus formation from L. minor strains 8744 and 8627. The basal medium used was MS and media and experimental protocol was basically that followed in Example 10. Fronds used in this experiment were grown for 2 weeks prior to plating on callus induction medium under 3 different culture conditions: 1) SH medium without plant growth regulators, 2) F medium with 24 μM 2,4-D and 2 μM 2-iP, and 3) SH medium with 24 μM 2,4-D and 2 μM 2-iP. Fronds were separated, the roots cut off and then plated on induction medium. The fronds were incubated under conditions given in Example 8 for 6 weeks at which time cultures were evaluated for the presence or absence of callus induction, the degree to which the callus proliferated, and the basic morphology of the callus present.
In the cytokinin type and concentration experiment, four cytokinins: BA, kinetin, 2-iP, and thidiazuron were tested, each at five concentrations: 0.05, 0.1, 0.5, 1 and 5 μM, for their ability to induce callus formation from L. minor strains 8744 and 8627. The basal medium used was MS and the media and experimental protocol were basically as described in Example 11. Fronds used in this experiment were grown for 2 weeks prior to plating on callus induction medium under 3 different culture conditions: 1) SH medium without plant growth regulators, 2) F medium with 24 μM 2,4-D and 2 μM 2-iP, and 3) SH medium with 24 μM 2,4-D and 2 μM 2-iP. Fronds were separated, the roots cut off and then plated on induction medium. The fronds were incubated under conditions given in Example 8 for 6 weeks at which time cultures were evaluated for the presence or absence of callus induction, the degree to which the callus proliferated, and the basic morphology of the callus.

A further series has as its system Lemna gibba G3. Briefly: Callus induction from Lemna gibba G3 fronds on solid medium with plant growth regulators. The protocol:
Duckweed fronds were grown in liquid Hoagland's medium (Hoagland and Snyder, Proc. Amer. Soc. Hort. Sci. 30, 288 (1933)) containing 3% sucrose for two weeks at 23° C. under a 16 hr light/8 hr dark photoperiod with light intensity of approximately 40 μmol/m^2·sec prior to experimentation. For callus induction, eighteen, 100 ml portions of Murashige and Skoog basal medium (Murashige and Skoog, Physiol. Plant. 15, 473 (1962)) containing 3% sucrose, 0.15% Gelrite and 0.4% Difco Bacto-agar were prepared with 2,4-D concentrations of 10, 20 and 50 μM and BA concentrations of 0, 0.01, 0.1, 1.0, 2.0, and 10.0 μM. All media were pH adjusted to 5.8, autoclaved at 121° C. for 20 minutes, cooled, and each 100 ml was poured into 4, 100 mm×15 mm petri dishes.
(§1) A three 2,4-D concentrations×six BA concentrations, full-factorial experimental design (18 treatments in total) with four replications, with one petri dish per replication and 5 fronds per petri dish was used. For callus induction, 5 individual duckweed fronds were placed abaxial side down on each plate of medium. The 72 plates were incubated at 23° C., for 27 days under a 16 hr light/8 hr dark photoperiod with light intensity of approximately 40 μmol/m^2·sec. After 27 days the duckweed tissue was transferred to fresh media of the same type and incubation was continued another 35 days under the same temperature and light culturing conditions.
Duckweed fronds were grown in liquid Hoagland's medium containing 3% sucrose for two weeks at 23° C. under a 16 hr light/8 hr dark photoperiod with light intensity of approximately 40 μmol/m^2·sec. prior to experimentation. For callus induction, forty 100 ml portions of Murashige and Skoog medium with 3% sucrose, 0.15% Gelrite, and 0.4% Difco Bacto-agar were prepared with dicamba concentrations of 10, 20, 30, 40, 50, 60, 80, 100 μM and BA concentrations of 0.01, 0.05, 0.1, 0.5, and 1.0 μM. All media were pH adjusted to 5.8, autoclaved at 121° C. for 20 minutes, cooled, and each 100 ml was poured into 4, 100 mm×15 mm petri dishes.
as §1, with “An eight dicamba concentrations×five BA” for “A three 2,4-D concentrations×six BA”, “design (40” for “design (18”, “The” for “The 72”, “After 28” for “After 27”, “another 45” for “another 35”
Duckweed fronds were grown in liquid Schenk and Hildebrandt medium containing 1% sucrose for two weeks at 23° C. under a 16 hr light/8 hr dark photoperiod with light intensity of approximately 40 μmol/m^2·sec prior to experimentation. For callus induction, three basal media were tested: Murashige and Skoog, Schenk and Hildebrandt, and N6. Benzyladenine was used as the cytokinin at a concentration of 1 μM. The auxin concentrations varied with auxin type. For the relatively strong auxins, 2,4-D and dicamba, concentrations were 0, 1, 5, 10 and 20 μM. For weak auxins, NAA and IBA, the concentrations were 0, 5, 10, 20 and 50 μM. For each medium dose-response experiment, 2 liters of basal medium were prepared with BA and the pH adjusted to 5.8. The volume was aliquoted as 20, 100 ml portions. To each of these portions, the appropriate amount of auxin was added and the medium was adjusted to 0.15% Gelrite, and 0.4% Difco Bacto-agar. The media were autoclaved for 30 minutes at 121° C., cooled and 4, 100 mm×15 mm petri dishes were poured from each 100 ml portion.
A 3 media×4 auxin×5 concentration combinations, 60 treatment, randomized dose-response experimental design was used. The design was replicated two times, with one petri dish per replication and 5 fronds per petri dish.

In another series the test system is Spirodela species. Briefly: Callus induction screen across Lemnaceae strains, frond health. The conditions noted are these: 4-5 weeks. The procedure:
Duckweed fronds were grown in liquid Schenk and Hildebrandt medium containing 1% sucrose for two weeks at 23° C. under a 16 hr light/8 hr dark photoperiod with light intensity of approximately 40 μmol/m^2·sec prior to experimentation. For callus induction, six basal media were used: Murashige and Skoog, Schenk and Hildebrand (Schenk and Hildebrandt, Can. J. Bot. 50, 199 (1972)), Nitsch and Nitsch, N6 (Chu et al., Scientia Sinica 18, 659 (1975)), Gamborg's B5, and Hoagland's. The two plant growth regulator combinations known to elicit callus proliferation in L. gibba G3 were used: 30 μM 2,4-D and 0.02 μM BA, and 5 μM 2,4-D and 2 μM BA. For each strain, 200 ml of each basal medium was prepared with 3% sucrose, 0.15% Gelrite, and 0.4% Difco Bacto-agar. The 200 ml was divided into 2, 100 ml portions, each to be used to prepare the two plant growth regulator concentrations. The pH of all media was adjusted to 5.8, the media were autoclaved for 30 minutes at 121° C., cooled and 4, 100 mm×15 mm petri dishes were poured from each 100 ml portion.
A 6 media×2 plant growth regulator combinations, 12 treatment, random block experimental design was used for each duckweed strain tested. […] At this time the fronds were evaluated for general health (judged by color: green to yellow, and vigor of proliferation) and the frequency of callus initiation of the three types: Type I, Type II, and Type III.

For `O=C(O)COc1ccc(Cl)cc1Cl` [2,4-D, 2,4-dichlorophenoxyacetic acid], the “concentration giving the best callus induction” value in series [1] (strain 8627, auxin experiment) amounted to 5 µM. The “concentration giving the best callus induction” value in series [1] (strain 8744, auxin experiment) was 5 µM. Besides, in the series with Lemna gibba G3 (2,4-D x BA factorial, Murashige and Skoog medium, 62 days), the “concentrations at which callus proliferation was the most vigorous” value lay within 20 to 50 µM. Besides, in the series on Lemna gibba G3 (auxin with 1 μM BA, five weeks), the “compact Type I callus induction on MS medium” value is “some degree of callus induction” and the “compact Type I callus induction on N6 medium” value is recorded as “produced callus”. Moreover, in the series on Spirodela species (higher concentration of 2,4-D (30 μM with 0.02 μM BA)), the frond survival result is given as “did not survive”. For the same compound, the frond growth entry with Spirodela species (lower concentration of 2,4-D (5 μM with 2 μM BA)) is “did not grow well”.
